# Results as given in the supplement of paper PMC10307832.
# Experiments:
# Assay in all cases: relative viability (nuclei count vs DMSO), 5 days (fraction); higher = more cells survive
# Metformin + Crizotinib = compound: CN(C)C(=N)NC(=N)N [Metformin] + C[C@@H](Oc1cc(-c2cnn(C3CCNCC3)c2)cnc1N)c1c(Cl)ccc(F)c1Cl [Crizotinib] (partner 1 µM)
# Summary of the method: (§1)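 Lung cancer cell lines in 1536-well plates were dosed by pin tool the day after seeding, either with one drug alone or with a fixed anchor-drug dose plus five library-drug doses (not always all listed) in √10 steps. After 5 days, cells were fixed and their nuclei stained in one step (final 0.05% Triton X-100, 1% formaldehyde, 1 ug/ml Hoechst), then counted on 4× images. Relative viability is the nuclei count in treated wells divided by that in vehicle wells. Values are medians of duplicate plates.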
# Metformin + Foretinib = compound: CN(C)C(=N)NC(=N)N [Metformin] + COc1cc2c(Oc3ccc(NC(=O)C4(C(=O)Nc5ccc(F)cc5)CC4)cc3F)ccnc2cc1OCCCN1CCOCC1 [Foretinib] (partner 0.25 µM)
# Summary of the method: as §1
# Apatinib + Pictilisib = compound: N#CC1(c2ccc(NC(=O)c3cccnc3NCc3ccncc3)cc2)CCCC1 [Apatinib] + CS(=O)(=O)N1CCN(Cc2cc3nc(-c4cccc5[nH]ncc45)nc(N4CCOCC4)c3s2)CC1 [Pictilisib] (partner 1 µM)
# Summary of the method: as §1
# Metformin + Linsitinib = compound: CN(C)C(=N)NC(=N)N [Metformin] + C[C@]1(O)C[C@@H](c2nc(-c3ccc4ccc(-c5ccccc5)nc4c3)c3c(N)nccn32)C1 [Linsitinib] (partner 1 µM)
# Summary of the method: as §1
Cell Line,relative viability (Metformin + Crizotinib; first compound 10 µM),relative viability (Metformin + Crizotinib; first compound 31.62 µM),relative viability (Metformin + Crizotinib; first compound 100 µM),relative viability (Metformin + Crizotinib; first compound 316.23 µM),relative viability (Metformin + Crizotinib; first compound 1000 µM),relative viability (Metformin + Foretinib; first compound 31.62 µM),relative viability (Metformin + Foretinib; first compound 100 µM),relative viability (Metformin + Foretinib; first compound 316.23 µM),relative viability (Metformin + Foretinib; first compound 1000 µM),relative viability (Apatinib + Pictilisib; first compound 0.08 µM),relative viability (Apatinib + Pictilisib; first compound 0.253 µM),relative viability (Apatinib + Pictilisib; first compound 0.8 µM),relative viability (Apatinib + Pictilisib; first compound 2.53 µM),relative viability (Apatinib + Pictilisib; first compound 8 µM),relative viability (Metformin + Linsitinib; first compound 31.62 µM),relative viability (Metformin + Linsitinib; first compound 100 µM),relative viability (Metformin + Linsitinib; first compound 316.23 µM),relative viability (Metformin + Linsitinib; first compound 1000 µM),relative viability (Metformin + Foretinib; first compound 10 µM),relative viability (Metformin + Linsitinib; first compound 10 µM)
LC-2-ad,0.369,0.357,0.338,0.415,0.378,0.788,0.923,0.692,0.624,0.653,0.47,0.39,0.353,0.229,0.716,0.628,0.695,0.678,–,–
NCI-H2126,0.863,0.946,0.957,0.908,0.956,1.18,1.22,0.862,1.15,0.52,0.398,0.473,0.505,0.479,0.735,0.687,0.703,0.721,1.12,0.633
NCI-H1975,1.09,1.12,1.21,1.06,1.27,1.1,1.08,1.06,1.21,0.305,0.335,0.304,0.28,0.322,1.26,1.07,1.18,1.31,1.16,1.09
NCI-H1734,0.743,0.83,0.654,0.669,0.74,0.896,0.95,0.798,0.935,0.478,0.491,0.466,0.469,0.416,0.954,1.05,0.844,0.946,0.844,0.99
NCI-H727,0.886,0.886,1.04,0.811,0.993,0.769,0.959,0.914,0.927,0.328,0.306,0.358,0.364,0.367,0.342,0.304,0.298,0.35,0.971,0.289
LU99A,0.47,0.52,0.443,0.503,0.481,0.676,0.643,0.596,0.677,0.333,0.327,0.332,0.302,0.295,0.491,0.466,0.377,0.514,0.57,0.493
LXF-289,0.764,0.759,0.812,0.776,0.794,0.918,0.879,0.916,0.912,0.838,0.828,0.76,0.714,0.72,0.912,0.996,0.879,0.915,0.873,0.923
UMC-11,0.725,0.742,0.673,0.626,0.598,1.09,1.05,1.1,1.07,0.878,0.731,0.688,0.76,0.686,1.09,1.12,1.04,1.14,1.14,1.07
LCLC-103H,1.13,1.19,1.11,1.1,1.09,1.09,0.881,0.781,0.923,0.651,0.639,0.554,0.545,0.546,1.26,1.06,1.12,1.19,0.823,1.05
NCI-H2405,0.815,0.93,0.97,0.89,0.854,1.06,1.11,1.01,1.09,0.343,0.458,0.439,0.402,0.35,0.92,0.981,0.882,0.436,0.936,0.845
